Source: patent US5985916A, “Polymer-platinum compounds” (Access Pharmaceuticals, Inc., priority 1998, dated 1999)

How the values were obtained:
L132 cells = assay: In vitro cytotoxicity (MTT assay), L132; format: cell-based, human; details: 50% decrease in cell viability
Experimental: (§1) The in vitro cytotoxicity of the polyamidoamine-platinum compounds was evaluated using the MTT assay described above and in Example 5.
(§2) The cell lines used, L132 (human embryonic lung cells), COR L23 (non-small cell lung cancer cells) and H69 (small cell lung cancer), were obtained from European Collection of Cell Cultures, Centre for Applied Biology, Microbiology and Research, Salisbury, Wiltshire UK.
(§3) Cells were cultured using standard conditions in microtitre plates.

COR-L23 cells = assay: In vitro cytotoxicity (MTT assay), COR-L23; format: cell-based; details: 50% decrease in cell viability
Experimental: as §1, §2, §3

H69 cells = assay: In vitro cytotoxicity (MTT assay), H69 small cell lung carcinoma; format: cell-based; details: 50% decrease in cell viability
Experimental: as §1, §2, §3

[1] = tested on: L1210 intraperitoneal tumor; assay: L1210 i.p. tumor model in mice (survival and toxic deaths); format: in vivo, mice (DBA2)
Experimental: The data in Table 3 is expressed as the ratio of the mean survival time of treated animals to the mean survival time of the untreated control animals×100 (T/C).
10^6 viable cells were administered to DBA2 mice (male 9-12 weeks, 20-30 g) i.p. on day 0. […] Animals were weighed daily and observed twice a day for signs of tumor progression and sacrificed if their body weight fell below 80% of the starting weight or if other severe toxicological problems were seen. At the end of the experiment changes in gross anatomy were noted.

[2] = tested on: B16 melanoma intraperitoneal tumor; assay: B16 melanoma i.p. tumor model in mice (survival, toxic deaths, body weight); format: in vivo, mice (C57BL/6J); details: single i.p. dose
Source text: Male C57BL/6J mice were inoculated with 10^6 viable B16F10 cells intraperitoneally (i.p). […] Animals were monitored as described above.

[3] = background; cited from earlier work

Compound: N.N.[Cl][Pt][Cl] [Cisplatin, Cis-diamminedichloroplatinum(II)]
- IC50, L132 (L132 cells): 4.80 ± 1.29 µg/mL
- IC50, COR-L23 (COR-L23 cells): 7.38 ± 2.78 µg/mL
- IC50, H-69 (H69 cells): 45.9 ± 20 µg/mL
- T/C (mean survival time treated/control × 100) ([1]; 2 mg/kg Pt): 171
- T/C (mean survival time treated/control × 100) ([1]; 3 mg/kg Pt): 64
- T/C ([2]; 5 mg/kg Pt): 134
- T/C ([2]; 10 mg/kg Pt): 78
- excretion, in words [3]: rapid excretion via the kidneys
